Calls of active or inactive are those of the source.
Legend:
[1] = Vero cell cytotoxicity, dose response, cytotoxicity control for Vif-APOBEC3G degradation inhibitor project, Vero cells (AID 1117358); format: functional; settings: Human immunodeficiency virus 1, Vero
[2] = cytotoxicity in HEK-293T cells, dose response, cytotoxicity control for TCR NF-kB inhibitor project, luminescence, T-cell screen hits (AID 489026); format: functional, cell-based;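 note: cells exposed to compound about 14 hours before the viability readout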
[3] = system: J774.A1; test: Confirmation of image-based Screening Assay for Inhibitors of Phagocytosis. [Related pubchem assays (depositor defined):AID1029, AID1643]; format: functional, cell-based; settings: Mus musculus
[4] = molecular target: ORF 73 (Human herpesvirus 8, UniProt O40947); test: inhibitors of C-LANA binding to LBS DNA, dose response, biochemical, fluorescence polarization, cherry-picked samples (AID 504725); parameters: species or system Human gammaherpesvirus 8;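 note: fluorescence polarization of a labeled DNA duplex reporting LANA DNA binding; potency is for inhibitors that block LANA binding to the DNA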
[5] = molecular target: T1, Histone-lysine N-methyltransferase NSD2 (Homo sapiens, UniProt O96028); format: biochemical
T1 sequence (O96028 whole entry): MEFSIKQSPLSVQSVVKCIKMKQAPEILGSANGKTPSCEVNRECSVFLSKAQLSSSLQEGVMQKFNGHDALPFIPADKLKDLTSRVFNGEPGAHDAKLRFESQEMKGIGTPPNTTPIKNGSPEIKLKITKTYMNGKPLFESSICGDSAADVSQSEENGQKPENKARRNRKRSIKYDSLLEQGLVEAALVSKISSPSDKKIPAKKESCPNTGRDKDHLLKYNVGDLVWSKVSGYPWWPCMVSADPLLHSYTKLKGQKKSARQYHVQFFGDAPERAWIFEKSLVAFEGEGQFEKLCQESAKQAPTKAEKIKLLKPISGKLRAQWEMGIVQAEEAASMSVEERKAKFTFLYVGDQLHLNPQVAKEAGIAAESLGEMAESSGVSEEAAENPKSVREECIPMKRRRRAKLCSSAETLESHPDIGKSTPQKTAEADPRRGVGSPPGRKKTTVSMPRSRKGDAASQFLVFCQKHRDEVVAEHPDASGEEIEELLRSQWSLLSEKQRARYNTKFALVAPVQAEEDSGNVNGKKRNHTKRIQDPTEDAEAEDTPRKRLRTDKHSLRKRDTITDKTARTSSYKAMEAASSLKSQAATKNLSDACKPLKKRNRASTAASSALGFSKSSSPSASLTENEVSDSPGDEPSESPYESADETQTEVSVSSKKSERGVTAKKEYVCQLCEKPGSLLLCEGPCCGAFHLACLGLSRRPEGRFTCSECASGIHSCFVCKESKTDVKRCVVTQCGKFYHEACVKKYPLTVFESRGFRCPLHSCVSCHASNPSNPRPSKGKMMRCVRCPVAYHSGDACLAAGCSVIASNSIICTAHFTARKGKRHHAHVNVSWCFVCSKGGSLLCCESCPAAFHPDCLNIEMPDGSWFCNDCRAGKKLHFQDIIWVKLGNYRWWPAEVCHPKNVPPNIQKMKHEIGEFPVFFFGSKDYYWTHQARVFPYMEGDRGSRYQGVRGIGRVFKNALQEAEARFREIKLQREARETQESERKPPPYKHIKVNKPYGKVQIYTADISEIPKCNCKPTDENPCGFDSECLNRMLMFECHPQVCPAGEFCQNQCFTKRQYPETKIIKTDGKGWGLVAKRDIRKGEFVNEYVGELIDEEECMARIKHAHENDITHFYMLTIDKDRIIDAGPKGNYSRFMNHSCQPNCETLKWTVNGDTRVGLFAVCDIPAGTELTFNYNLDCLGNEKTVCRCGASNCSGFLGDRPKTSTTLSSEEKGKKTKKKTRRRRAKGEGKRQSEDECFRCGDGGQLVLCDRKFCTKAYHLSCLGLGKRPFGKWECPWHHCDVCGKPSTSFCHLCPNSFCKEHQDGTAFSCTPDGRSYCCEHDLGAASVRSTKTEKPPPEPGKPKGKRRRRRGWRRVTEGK

[6] = molecular target: T2, Carboxy-terminal domain RNA polymerase II polypeptide A small phosphatase 1 (Homo sapiens, UniProt Q9GZU7); test: inhibitors of CTDSP1, concentration-response testing, biochemical assay, absorbance-based, actives from ultra-high-throughput screening (AID 540297); format: functional
T2 sequence (Q9GZU7 whole entry): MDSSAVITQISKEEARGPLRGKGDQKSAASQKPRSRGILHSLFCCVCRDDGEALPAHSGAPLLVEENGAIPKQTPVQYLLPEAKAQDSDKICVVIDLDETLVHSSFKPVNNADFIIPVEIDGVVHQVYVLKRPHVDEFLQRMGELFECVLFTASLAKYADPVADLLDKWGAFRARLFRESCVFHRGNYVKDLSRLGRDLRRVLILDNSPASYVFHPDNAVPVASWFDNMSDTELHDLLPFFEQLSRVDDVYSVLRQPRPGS

[7] = molecular target: Glutathione S-transferase omega-1 (Homo sapiens, UniProt P78417); test: GSTO1 inhibitor potency, recombinant enzyme, late-stage follow-up, biochemical, SE-Rh probe, in-gel fluorescence, powder samples, set 2 (AID 463142); format: functional
[8] = molecular target: Troponin, cardiac muscle (Homo sapiens, UniProt P19429+P45379+P63316); test: inhibitors of cardiac thin filament calcium sensitivity, dose response, biochemical, fluorescence, cardiac regulated thin filaments, triplicate IC50 (AID 504742); format: protein-complex assay
[9] = ADAM10 protease inhibitors, dose response, selectivity assay for ADAM17 exosite inhibitor project, biochemical, FRET peptide substrate, recombinant human ADAM10 (AID 743259);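 note: ADAM10 enzyme cleaving a FRET peptide substrate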
[10] = molecular target: 1-phosphatidylinositol 4,5-bisphosphate phosphodiesterase gamma-1 (Homo sapiens, UniProt P19174); test: Counterscreen for inhibitors of phospholipase C isozymes (PLC-B3): Fluorescence-based biochemical high throughput dose response assay to identify inhibitors of phospholipase C isozymes (PLC-gamma1).
[11] = molecular target: T3, Zinc finger protein mex-5 (Caenorhabditis elegans, UniProt Q9XUB2); test: MEX-5/TCR-2 RNA interaction inhibitors, dose response, biochemical, C. elegans, fluorescence polarization (AID 1960)
T3 sequence (Q9XUB2 whole entry): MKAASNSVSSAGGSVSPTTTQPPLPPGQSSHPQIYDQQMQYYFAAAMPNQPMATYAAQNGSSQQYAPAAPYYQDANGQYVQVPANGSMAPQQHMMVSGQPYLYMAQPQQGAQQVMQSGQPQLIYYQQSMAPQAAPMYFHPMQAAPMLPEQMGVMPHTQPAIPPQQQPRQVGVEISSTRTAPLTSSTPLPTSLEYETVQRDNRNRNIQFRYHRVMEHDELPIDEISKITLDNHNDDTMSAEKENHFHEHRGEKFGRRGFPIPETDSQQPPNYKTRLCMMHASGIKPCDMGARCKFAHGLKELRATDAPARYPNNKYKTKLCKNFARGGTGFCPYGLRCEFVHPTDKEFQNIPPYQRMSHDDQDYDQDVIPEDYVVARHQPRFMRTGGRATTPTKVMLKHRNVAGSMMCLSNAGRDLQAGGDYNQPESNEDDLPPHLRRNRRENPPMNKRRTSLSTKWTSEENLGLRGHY

[12] = molecular target: Tyrosyl-DNA phosphodiesterase 2 (Homo sapiens, UniProt O95551); test: human TDP2 enzyme inhibitors, dose response, biochemical, epi absorbance, IC50 (AID 743297)
[13] = molecular target: T4, RNA-binding protein pos-1 (Caenorhabditis elegans, UniProt G5EF15); test: inhibitors of POS-1/mex-3 RNA binding, dose response, biochemical, fluorescence polarization (AID 1964);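 note: purified POS-1 fused to maltose binding protein made in E. coli; potency of compounds blocking POS-1 binding to fluorescent RNA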
T4 sequence (G5EF15 whole entry): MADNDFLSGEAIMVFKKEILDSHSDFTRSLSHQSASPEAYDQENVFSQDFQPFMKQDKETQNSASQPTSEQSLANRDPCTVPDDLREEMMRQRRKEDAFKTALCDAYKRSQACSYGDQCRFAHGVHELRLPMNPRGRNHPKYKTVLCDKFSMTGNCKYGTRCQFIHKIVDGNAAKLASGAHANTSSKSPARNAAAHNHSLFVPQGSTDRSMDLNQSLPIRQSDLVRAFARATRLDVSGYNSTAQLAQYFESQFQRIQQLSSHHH

[14] = molecular target: Disintegrin and metalloproteinase domain-containing protein 17 (Homo sapiens, UniProt P78536); test: exosite inhibitors of ADAM17, dose response, biochemical (AID 743260)
[15] = molecular target: 1-phosphatidylinositol 4,5-bisphosphate phosphodiesterase beta-3 (Homo sapiens, UniProt Q01970); test: Fluorescence-based biochemical high throughput dose response assay to identify inhibitors of phospholipase C isozymes (PLC-B3).
[16] = molecular target: T5, DNA repair and recombination protein RAD54-like (Homo sapiens, UniProt Q92698); test: inhibitors of human RAD54 branch migration, confirmation, biochemical, fluorescence, cherry-picked samples, dose series (AID 651657); format: functional
T5 sequence (Q92698 whole entry): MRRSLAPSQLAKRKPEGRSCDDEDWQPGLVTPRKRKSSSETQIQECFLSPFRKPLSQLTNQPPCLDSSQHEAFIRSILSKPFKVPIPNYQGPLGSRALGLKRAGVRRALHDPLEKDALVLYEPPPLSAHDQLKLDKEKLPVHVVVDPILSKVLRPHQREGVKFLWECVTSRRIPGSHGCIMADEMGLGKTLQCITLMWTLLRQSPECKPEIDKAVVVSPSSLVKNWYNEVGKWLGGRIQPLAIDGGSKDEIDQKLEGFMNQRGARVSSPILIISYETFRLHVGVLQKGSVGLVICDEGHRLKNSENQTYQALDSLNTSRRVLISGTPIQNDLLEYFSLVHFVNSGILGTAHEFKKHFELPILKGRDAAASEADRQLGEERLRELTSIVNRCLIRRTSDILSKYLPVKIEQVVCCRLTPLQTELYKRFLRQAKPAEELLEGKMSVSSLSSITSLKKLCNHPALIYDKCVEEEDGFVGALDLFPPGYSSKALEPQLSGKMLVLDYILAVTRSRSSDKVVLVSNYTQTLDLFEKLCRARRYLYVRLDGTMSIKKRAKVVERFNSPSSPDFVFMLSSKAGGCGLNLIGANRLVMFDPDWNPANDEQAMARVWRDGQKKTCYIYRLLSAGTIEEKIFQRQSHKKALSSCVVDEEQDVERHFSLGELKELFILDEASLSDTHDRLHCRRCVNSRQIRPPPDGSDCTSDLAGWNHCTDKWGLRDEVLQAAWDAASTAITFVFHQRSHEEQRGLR

[17] = inhibitors of intracellular T. cruzi replication, confirmation, NIH3T3 host cells, beta-gal luminescence (AID 2044); format: functional, cell-based;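 note: intracellular parasites grown in NIH/3T3 mouse fibroblasts as host cells; luminescent beta-galactosidase reporter signal from transgenic T. cruzi replicating inside host cells; inhibitors lower the luminescence signal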
[18] = system: Vero; test: cells; format: functional; settings: Chlorocebus sabaeus
[19] = molecular target: T6, Heat shock factor protein 1 (Mus musculus, UniProt P38532); test: HSF1 potentiators in luciferase reporter cells, confirmation, cell-based, NIH3T3, luminescence, dose retest (AID 435004); format: functional;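 note: stress induced by proteasome inhibitor MG132 added 30 min after compound; luciferase reporter driven by HSF1 response element in NIH3T3 cells; actives raise luminescence as potentiators of the MG132 stress response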
T6 sequence (P38532 whole entry): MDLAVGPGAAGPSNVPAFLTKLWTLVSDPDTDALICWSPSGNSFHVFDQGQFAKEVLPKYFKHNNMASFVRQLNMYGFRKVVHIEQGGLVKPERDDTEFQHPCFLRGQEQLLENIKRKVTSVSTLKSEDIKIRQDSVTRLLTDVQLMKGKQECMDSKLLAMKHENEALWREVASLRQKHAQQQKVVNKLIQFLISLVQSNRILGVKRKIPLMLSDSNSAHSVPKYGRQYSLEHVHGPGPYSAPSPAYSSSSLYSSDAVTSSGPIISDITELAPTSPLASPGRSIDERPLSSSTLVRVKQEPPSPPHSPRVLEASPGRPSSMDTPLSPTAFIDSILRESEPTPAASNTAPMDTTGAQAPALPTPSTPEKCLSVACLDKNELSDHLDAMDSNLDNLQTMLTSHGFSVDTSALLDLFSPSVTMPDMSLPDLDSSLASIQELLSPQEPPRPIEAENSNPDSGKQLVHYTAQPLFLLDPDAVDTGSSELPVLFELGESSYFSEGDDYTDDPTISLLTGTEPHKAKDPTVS

[20] = cytotoxicity toward NIH3T3 fibroblasts, dose response, counter-screen, cell-based, ATP luminescence, mouse fibroblasts (AID 2010); format: functional;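 note: cells exposed to compound for about 90 hours before reading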
[21] = DNA binding of candidate compounds, dose response, artefact control for RAD54 inhibitor project, biochemical, fluorescence polarization, cherry-pick (AID 651673); format: functional
[22] = molecular target: T7, DNA repair protein RAD52 homolog (Homo sapiens, UniProt P43351); format: functional, biochemical
T7 sequence (P43351 whole entry): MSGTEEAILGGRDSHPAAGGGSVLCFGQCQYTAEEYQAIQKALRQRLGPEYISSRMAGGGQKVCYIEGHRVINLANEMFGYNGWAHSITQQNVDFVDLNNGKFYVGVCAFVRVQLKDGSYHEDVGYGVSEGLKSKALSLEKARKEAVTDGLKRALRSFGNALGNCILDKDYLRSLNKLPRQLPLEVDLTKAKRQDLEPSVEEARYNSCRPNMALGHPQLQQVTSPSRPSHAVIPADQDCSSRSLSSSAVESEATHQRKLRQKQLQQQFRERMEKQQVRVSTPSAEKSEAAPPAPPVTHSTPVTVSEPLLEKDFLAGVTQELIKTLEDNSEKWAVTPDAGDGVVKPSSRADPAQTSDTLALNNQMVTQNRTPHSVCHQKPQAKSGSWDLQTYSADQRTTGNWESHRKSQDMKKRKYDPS

[23] = molecular target: FAD-linked sulfhydryl oxidase ALR (Homo sapiens, UniProt P55789); test: inhibitors of human ALR sulfhydryl oxidase, dose response, biochemical, H2O2 detection, luminescence, cherry-pick (AID 493248)
[24] = inhibition of K1F phage lysis, E. coli UTI89, bacterial capsule biogenesis inhibitors, alamar blue (AID 488966); format: functional

ORF 73, sequence (O40947 whole entry): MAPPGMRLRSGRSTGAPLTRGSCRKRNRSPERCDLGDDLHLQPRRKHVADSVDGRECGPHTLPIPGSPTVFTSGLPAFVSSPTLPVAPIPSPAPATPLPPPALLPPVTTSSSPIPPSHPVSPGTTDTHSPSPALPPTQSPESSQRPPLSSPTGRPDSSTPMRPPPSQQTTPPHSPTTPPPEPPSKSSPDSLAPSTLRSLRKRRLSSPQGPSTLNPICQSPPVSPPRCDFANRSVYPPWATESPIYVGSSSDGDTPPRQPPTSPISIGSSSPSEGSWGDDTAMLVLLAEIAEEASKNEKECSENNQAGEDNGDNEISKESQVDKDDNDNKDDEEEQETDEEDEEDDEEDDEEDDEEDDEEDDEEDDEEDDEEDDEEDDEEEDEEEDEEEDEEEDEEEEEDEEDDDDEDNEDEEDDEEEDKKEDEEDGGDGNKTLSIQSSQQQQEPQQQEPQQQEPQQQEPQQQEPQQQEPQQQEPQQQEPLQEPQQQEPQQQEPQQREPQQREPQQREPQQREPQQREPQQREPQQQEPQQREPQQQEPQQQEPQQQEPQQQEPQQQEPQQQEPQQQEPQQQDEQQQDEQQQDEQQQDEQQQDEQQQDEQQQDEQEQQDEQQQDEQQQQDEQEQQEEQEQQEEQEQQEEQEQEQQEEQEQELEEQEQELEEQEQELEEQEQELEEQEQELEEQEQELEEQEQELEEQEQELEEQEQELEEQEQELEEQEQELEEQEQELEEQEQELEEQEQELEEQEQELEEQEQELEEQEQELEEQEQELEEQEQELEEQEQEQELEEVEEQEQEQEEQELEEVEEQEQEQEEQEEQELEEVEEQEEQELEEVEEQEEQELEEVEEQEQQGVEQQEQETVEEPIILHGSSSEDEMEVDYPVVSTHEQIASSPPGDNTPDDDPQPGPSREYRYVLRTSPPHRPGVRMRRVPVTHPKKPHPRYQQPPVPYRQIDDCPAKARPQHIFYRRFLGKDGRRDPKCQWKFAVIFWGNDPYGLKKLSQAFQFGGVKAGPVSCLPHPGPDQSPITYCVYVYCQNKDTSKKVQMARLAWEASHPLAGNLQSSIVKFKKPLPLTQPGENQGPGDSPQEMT
FAD-linked sulfhydryl oxidase ALR, sequence (P55789 whole entry): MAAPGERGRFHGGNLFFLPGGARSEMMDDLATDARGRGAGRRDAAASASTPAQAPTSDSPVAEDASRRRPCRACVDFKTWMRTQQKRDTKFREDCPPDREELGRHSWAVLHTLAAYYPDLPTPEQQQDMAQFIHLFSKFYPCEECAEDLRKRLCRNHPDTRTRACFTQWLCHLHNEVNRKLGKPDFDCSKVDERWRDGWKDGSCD
1-phosphatidylinositol 4,5-bisphosphate phosphodiesterase gamma-1, sequence (P19174 whole entry): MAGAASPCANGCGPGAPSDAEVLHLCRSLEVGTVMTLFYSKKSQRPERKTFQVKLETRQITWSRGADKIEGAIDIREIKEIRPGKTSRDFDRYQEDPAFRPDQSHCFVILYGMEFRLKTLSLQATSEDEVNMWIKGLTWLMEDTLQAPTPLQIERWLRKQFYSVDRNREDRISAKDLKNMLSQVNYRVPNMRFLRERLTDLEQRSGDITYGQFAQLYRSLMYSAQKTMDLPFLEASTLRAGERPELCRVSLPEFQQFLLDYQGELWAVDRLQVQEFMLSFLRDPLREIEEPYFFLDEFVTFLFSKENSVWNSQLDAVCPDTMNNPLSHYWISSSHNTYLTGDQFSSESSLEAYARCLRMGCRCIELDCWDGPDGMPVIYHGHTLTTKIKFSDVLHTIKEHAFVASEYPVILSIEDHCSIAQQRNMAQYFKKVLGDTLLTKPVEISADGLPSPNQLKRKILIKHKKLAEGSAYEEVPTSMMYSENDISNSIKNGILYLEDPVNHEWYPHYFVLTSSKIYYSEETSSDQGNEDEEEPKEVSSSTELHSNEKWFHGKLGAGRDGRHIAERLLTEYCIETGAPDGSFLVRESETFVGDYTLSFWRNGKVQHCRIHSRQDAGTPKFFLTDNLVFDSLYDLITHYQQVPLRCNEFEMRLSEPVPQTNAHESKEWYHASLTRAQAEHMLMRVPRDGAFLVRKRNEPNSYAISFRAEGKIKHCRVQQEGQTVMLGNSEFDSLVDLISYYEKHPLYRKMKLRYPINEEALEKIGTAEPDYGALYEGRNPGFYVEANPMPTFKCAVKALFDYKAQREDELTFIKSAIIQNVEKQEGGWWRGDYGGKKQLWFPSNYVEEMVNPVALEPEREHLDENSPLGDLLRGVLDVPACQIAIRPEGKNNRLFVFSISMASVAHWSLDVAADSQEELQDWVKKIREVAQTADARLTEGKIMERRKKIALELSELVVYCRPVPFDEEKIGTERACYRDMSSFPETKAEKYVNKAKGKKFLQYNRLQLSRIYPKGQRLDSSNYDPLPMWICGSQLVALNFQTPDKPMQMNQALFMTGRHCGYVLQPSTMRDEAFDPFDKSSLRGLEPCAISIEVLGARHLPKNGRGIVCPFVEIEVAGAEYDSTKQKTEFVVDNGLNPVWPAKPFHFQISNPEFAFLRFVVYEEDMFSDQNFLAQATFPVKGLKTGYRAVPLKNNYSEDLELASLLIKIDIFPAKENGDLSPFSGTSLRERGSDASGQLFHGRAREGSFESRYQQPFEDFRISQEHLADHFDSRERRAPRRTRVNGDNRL
Disintegrin and metalloproteinase domain-containing protein 17, sequence (P78536 whole entry, the tested form may be a part): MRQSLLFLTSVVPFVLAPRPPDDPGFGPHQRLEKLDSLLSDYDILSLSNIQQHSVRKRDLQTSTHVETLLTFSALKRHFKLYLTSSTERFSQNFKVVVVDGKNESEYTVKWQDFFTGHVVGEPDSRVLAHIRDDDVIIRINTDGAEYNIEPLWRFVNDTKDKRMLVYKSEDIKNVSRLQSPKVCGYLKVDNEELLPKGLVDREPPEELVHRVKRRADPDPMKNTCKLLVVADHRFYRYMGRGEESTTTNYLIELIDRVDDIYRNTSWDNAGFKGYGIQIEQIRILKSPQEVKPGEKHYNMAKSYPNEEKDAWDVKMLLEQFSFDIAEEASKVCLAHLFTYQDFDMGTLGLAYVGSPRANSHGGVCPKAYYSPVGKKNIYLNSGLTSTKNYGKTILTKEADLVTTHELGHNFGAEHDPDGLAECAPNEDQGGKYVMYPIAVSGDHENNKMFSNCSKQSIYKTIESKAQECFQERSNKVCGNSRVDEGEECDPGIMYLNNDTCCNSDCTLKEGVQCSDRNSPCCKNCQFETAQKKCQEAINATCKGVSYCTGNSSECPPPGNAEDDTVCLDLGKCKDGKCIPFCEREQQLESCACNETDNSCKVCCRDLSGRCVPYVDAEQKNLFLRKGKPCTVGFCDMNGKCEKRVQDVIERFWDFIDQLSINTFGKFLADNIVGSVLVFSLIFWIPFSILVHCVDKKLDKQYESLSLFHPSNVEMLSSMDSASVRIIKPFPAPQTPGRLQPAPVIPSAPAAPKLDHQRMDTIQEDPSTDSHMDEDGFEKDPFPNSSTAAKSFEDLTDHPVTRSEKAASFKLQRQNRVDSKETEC
Tyrosyl-DNA phosphodiesterase 2, sequence (O95551 whole entry, the tested form may be a part): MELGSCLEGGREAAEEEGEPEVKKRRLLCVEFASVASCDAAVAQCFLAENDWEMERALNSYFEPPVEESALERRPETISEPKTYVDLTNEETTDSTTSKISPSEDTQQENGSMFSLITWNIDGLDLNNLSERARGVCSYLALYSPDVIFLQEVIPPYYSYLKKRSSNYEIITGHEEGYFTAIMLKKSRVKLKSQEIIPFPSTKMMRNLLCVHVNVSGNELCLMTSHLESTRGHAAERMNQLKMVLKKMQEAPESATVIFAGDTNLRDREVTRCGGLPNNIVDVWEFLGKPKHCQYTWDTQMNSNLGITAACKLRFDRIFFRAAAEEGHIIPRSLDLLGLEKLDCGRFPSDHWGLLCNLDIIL
Glutathione S-transferase omega-1, sequence (P78417 whole entry): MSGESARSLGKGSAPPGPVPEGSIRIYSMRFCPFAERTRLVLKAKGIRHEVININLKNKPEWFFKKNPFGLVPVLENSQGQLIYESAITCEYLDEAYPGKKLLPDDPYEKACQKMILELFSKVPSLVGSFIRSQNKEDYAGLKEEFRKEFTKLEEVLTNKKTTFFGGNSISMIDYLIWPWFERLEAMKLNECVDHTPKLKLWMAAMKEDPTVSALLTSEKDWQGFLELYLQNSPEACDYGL

## COc1ccc(C2=NOC(C(=O)NCc3cccs3)C2)cc1OC (centres undefined)
[1]
  CC50: > 40 µM (active)
[2]
  IC50: > 80 µM (inactive)
[3]
  IC50: 0.609 µM (active)

## O=C(O)COc1ccc2c(c1)O/C(=C\c1ccco1)C2=O
[4]
  AC50: 157 µM (active)
[5]
  AC50: > 20 µM (inactive)
[6]
  IC50: 3.74 µM (active)

## O=C(CCl)N(CCCCCNC(=O)C(F)(F)F)c1ccc([N+](=O)[O-])cc1
[7]
  IC50: 0.034 µM (active)

## O=C(O)c1cc(O)c2c(c1)[C@H]([C@H]1c3cc(C(=O)O)cc(O)c3C(=O)c3c(O[C@@H]4O[C@H](CO)[C@@H](O)[C@H](O)[C@H]4O)cccc31)c1cccc(OC3O[C@H](CO)[C@@H](O)[C@H](O)[C@H]3O)c1C2=O (some centres undefined)
[8]
  IC50: 2.72 µM (active)
[9]
  IC50: > 23.2 µM (inactive)
[10]
  IC50: 18.8 µM (inactive)
[11]
  EC50: 7.25 µM (active)
[12]
  IC50: > 128 µM (inactive)
[13]
  EC50: > 300 µM (not active)
[14]
  IC50: 30.4 µM (inactive)
[15]
  IC50: 109 µM (inactive)

## CN1CCN(c2ccc(Nc3ccnc4cc(Cl)ccc34)cc2)CC1
[16]
  AC50: 6.94 µM (active)
[17]
  EC50: 1.39 µM (active)
[18]
  CC50: 17.1 µM (active)
[19]
  EC50: > 260 µM (inactive)
[20]
  EC50: 10.4 µM (active)
[21]
  AC50: 56.1 µM (active)
[22]
  AC50: 2.47 µM (active)
[23]
  AC50: 5.43 µM (active)
[24]
  IC50: > 300 µM (active)
